In patent publication US7063966B2, “Chimeric G protein coupled receptors” (SRI International, priority 2001, dated 2006):
Where two headings read alike, the source gives them in different places.

Columns and labels:
Type in all cases: cell-based
Edg1/3(i3ct) [1] = target: T1, Edg1/3(i3ct) (Homo sapiens, UniProt P21453, DEL241-247/F237N/K239N/K250R/K256R/L235V/L252M/N315S/R231S/R234K/R238H/T230S/T236A); assay: Intracellular calcium mobilization (FLIPR) in HTC4 cells expressing Edg1/3(i3ct), single concentration; settings: 100 nM S1P, FIG. 2
T1 construct: DNA encoding the full length Edg 1/3(i3ct) chimera was then produced in a tertiary PCR reaction; expressed in transfected cells
Protocol: (§1) Media from GP-293 cells was collected and filtered through a […] PES syringe filter to remove cell debris. Polybrene (hexadimethrine bromide, Sigma) was added to each virus laden supernatant to a final concentration of […]. After removing the culture medium from the target cells, the virus-laden medium was used to overlay the host cell line HTC4 (rat hepatoma cell line; from Ed Goetzl, UCSF). Following infection, cells were incubated for 18–24 hours. Cells resistant to antibiotic (Geneticin, G418, […], Sigma) were selected. Clonal populations were selected from the pooled stable cells using a standard limiting dilution technique (adapted from “Antibodies: A Laboratory Manual”; 1988, Harlow, E. and Lane, D., Cold Spring Harbor Laboratory, New York).
(§2) HTC4 rat hepatoma cells stably transfected with Edg 1, Edg 1/3(ct), Edg1/3(i3ct) or Edg1/3(i2i3ct) according to Example 6.7 were plated on 384-well plates and loaded with a calcium dye loading kit (Molecular Devices, Sunnyvale, Calif.) for 1 hour at room temperature. Cells were then placed on FLIPR^384 (Molecular Devices, Sunnyvale, Calif.) and excited by an argon laser at 488 nm. In this assay, fluorescence changes over basal levels indicate an increase in intracellular calcium. In FIG. 2, basal fluorescence is at 0 (arbitrary units). […]

Edg1/3(i3ct) [2] = target: T1, Edg1/3(i3ct); assay: Dose response of intracellular calcium mobilization (FLIPR) in HTC4 cells expressing chimeric Edg1/3(i3ct)
Edg1/3(i2i3ct) = target: T2, Edg1/3(i2i3ct) (Homo sapiens, UniProt P21453, DEL241-247/F158H/F237N/G154A/H152Y/I144L/K150R/K239N/K250R/K256R/L147I/L151P/L235V/L252M/N153D/N156K/N157R/N315S/R231S/R234K/R238H/S155N/T230S/T236A/Y143H); assay: Intracellular calcium mobilization (FLIPR) in HTC4 cells expressing Edg1/3(i2i3ct); settings: 100 nM S1P, FIG. 2
T2 construct: DNA encoding the full length Edg 1/3(i2i3ct) chimera was then produced in a tertiary PCR reaction; expressed in transfected cells
Protocol: as §1, §2

Edg5/3(i3ct) = target: T3, Edg5/3(i3ct) (Homo sapiens, UniProt O95136, A221R/A225S/D222K/F113S/H220S/INS224NHNN/K233R/L229M/M223V/P226E/Q227R/R217K/T228S); assay: Intracellular calcium mobilization (FLIPR) in HTC4 cells expressing Edg5/3(i3ct); settings: 100 nM S1P, FIG. 5
T3 construct: DNA encoding the full length Edg 5/3(i3ct) chimera was then produced in a tertiary PCR reaction; expressed in transfected cells
Protocol: as §1
(§3) HTC4 rat hepatoma cells stably transfected with Edg5/3(i3ct) and Edg8/4(ct) according to Example 6.7 were plated on 384-well plates and loaded with a calcium dye loading kit (Molecular Devices, Sunnyvale, Calif.) for 1 hour at room temperature. Cells were then placed on FLIPR^384 (Molecular Devices, Sunnyvale, Calif.) and excited by an argon laser at 488 nm. In this assay, fluorescence changes over basal levels indicate an increase in intracellular calcium. […] The cells were contacted with 100 nM of the Edg 5 and Edg 8 agonist sphingosine-1-phosphate (S1P) 50 seconds after the start of the assay.

Edg8/4(ct) = target: T4, Edg8/4(ct) (Homo sapiens, UniProt Q9H228); assay: Intracellular calcium mobilization (FLIPR) in HTC4 cells expressing Edg8/4(ct); settings: 100 nM S1P, FIG. 5
T4 construct: DNA encoding the full length Edg 8/4(ct) chimera was produced in a secondary PCR reaction; expressed in transfected cells
Protocol: as §1, §3

Edg 1 = Edg 1 (Homo sapiens, UniProt P21453); assay: Intracellular calcium mobilization (FLIPR) in HTC4 cells expressing Edg 1; settings: 100 nM S1P, FIG. 2
Protocol: as §1, §2

Edg 1/3(ct) = target: T5, Edg 1/3(ct) (Homo sapiens, UniProt P21453, N315S); assay: Intracellular calcium mobilization (FLIPR) in HTC4 cells expressing Edg 1/3(ct); settings: 100 nM S1P, FIG. 4
T5 construct: DNA encoding the full length Edg 1/3(ct) chimera was produced in a secondary PCR reaction; expressed in transfected cells
Protocol: as §1, §2

T1 sequence (P21453 with tags, fused parts or gaps with the stated changes): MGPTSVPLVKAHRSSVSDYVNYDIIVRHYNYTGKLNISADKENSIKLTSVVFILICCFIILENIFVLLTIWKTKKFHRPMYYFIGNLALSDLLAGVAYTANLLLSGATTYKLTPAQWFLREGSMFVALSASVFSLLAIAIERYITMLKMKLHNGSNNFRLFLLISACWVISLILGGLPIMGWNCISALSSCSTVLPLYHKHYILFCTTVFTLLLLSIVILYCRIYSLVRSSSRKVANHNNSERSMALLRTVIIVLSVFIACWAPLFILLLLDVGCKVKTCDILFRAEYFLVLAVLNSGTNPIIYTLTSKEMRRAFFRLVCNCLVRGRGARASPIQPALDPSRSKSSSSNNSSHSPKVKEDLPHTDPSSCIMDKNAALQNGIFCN
T4 sequence (Q9H228 with tags, fused parts or gaps): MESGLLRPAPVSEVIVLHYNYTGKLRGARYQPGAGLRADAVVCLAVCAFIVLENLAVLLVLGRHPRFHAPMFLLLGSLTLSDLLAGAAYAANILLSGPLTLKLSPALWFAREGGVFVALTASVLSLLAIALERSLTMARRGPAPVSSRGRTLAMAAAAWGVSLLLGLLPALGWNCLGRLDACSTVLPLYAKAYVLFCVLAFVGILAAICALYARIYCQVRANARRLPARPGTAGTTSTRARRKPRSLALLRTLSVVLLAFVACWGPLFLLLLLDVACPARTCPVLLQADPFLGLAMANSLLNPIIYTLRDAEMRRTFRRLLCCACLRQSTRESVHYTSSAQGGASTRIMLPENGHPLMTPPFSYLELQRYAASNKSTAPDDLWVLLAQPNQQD
T5 sequence (P21453 with tags, fused parts or gaps N315S): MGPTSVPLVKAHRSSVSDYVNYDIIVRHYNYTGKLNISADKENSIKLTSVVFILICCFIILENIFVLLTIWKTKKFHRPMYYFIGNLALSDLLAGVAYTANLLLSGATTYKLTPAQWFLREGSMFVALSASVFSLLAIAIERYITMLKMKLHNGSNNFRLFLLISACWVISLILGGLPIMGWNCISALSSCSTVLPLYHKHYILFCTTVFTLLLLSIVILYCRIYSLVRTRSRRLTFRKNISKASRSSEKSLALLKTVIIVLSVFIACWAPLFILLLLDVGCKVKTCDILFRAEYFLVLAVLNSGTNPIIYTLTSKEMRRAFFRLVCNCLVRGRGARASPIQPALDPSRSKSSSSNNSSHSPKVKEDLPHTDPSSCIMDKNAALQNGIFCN
T3 sequence (O95136 with tags, fused parts or gaps with the stated changes): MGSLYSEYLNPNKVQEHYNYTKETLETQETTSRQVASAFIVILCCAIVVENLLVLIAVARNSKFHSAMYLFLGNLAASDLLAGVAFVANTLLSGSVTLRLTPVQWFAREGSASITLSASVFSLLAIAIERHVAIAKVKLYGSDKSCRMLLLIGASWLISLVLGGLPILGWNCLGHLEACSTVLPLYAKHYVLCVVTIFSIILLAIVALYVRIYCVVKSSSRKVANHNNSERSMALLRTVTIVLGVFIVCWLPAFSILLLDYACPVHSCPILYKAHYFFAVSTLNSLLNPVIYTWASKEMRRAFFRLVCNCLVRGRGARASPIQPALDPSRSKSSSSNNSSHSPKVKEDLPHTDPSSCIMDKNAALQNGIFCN
T2 sequence (P21453 with tags, fused parts or gaps with the stated changes): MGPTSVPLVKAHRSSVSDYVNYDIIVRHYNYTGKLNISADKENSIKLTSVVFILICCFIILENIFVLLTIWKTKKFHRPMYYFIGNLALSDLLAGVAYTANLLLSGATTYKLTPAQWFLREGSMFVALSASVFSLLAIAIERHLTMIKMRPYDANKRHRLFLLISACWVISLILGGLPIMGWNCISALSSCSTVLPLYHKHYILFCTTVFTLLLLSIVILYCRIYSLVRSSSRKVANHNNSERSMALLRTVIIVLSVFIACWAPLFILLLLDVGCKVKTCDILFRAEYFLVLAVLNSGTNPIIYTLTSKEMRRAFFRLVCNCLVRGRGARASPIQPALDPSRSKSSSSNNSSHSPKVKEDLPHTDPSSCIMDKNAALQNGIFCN
Chain of Edg 1 (P21453 whole entry): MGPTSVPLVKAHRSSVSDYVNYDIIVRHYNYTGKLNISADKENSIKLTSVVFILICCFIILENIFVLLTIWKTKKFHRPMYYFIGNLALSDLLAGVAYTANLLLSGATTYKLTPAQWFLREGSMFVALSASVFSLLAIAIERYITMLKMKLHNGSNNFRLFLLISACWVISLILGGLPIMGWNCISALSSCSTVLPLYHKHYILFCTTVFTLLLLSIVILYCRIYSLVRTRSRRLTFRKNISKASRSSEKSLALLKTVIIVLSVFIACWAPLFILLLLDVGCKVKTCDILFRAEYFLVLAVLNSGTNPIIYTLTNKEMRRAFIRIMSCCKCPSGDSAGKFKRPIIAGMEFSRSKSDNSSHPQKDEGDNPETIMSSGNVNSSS

Question: What does the source list for `CCCCCCCCCCCCC/C=C/[C@@H](O)[C@@H](N)COP(=O)(O)O` [S1P, sphingosine-1-phosphate]?
Answer: change in intracellular calcium (Edg1/3(i3ct) [1]): significant change in intracellular calcium; EC50 (Edg1/3(i3ct) [2]): ~10 nM; change in intracellular calcium (Edg1/3(i2i3ct)): significant change in intracellular calcium; intracellular calcium mobilization (Edg5/3(i3ct)): mobilize intracellular calcium; intracellular calcium mobilization (Edg8/4(ct)): mobilize intracellular calcium; change in intracellular calcium (Edg 1): no change in intracellular calcium; intracellular calcium mobilization (Edg 1/3(ct)): functional, although not as robust as Edg1/3(i3ct) or Edg1/3(i2i3ct)

Question: Which EC50 (Edg1/3(i3ct) [2]; HTC4 rat hepatoma cells stably transfected with Edg1/3(i3ct), FIG. 3, read-out: EC50 of intracellular calcium mobilization) does the source give for `CCCCCCCCCCCCCCC[C@@H](O)[C@@H](N)COP(=O)(O)O` [dihydro S1P, dihydro sphingosine-1-phosphate] here?
Answer: ~10 nM
